Measurements: ChEMBL document CHEMBL5214900, “Design, Synthesis, and Biological Evaluation of Membrane-Active Bakuchiol Derivatives as Effective Broad-Spectrum Antibacterial Agents” (J Med Chem, 2021)
≈ marks a conversion by molar mass, not a printed value.

Experiments:
Assay type in all cases: functional
Staphylococcus aureus [1] = test: Induction of drug resistance in Staphylococcus aureus ATCC 29213 assessed as fold change in MIC measured after 19 passages by CLSI based broth dilution method
Escherichia coli [2] = test: Induction of drug resistance in Escherichia coli ATCC 25922 assessed as fold change in MIC measured after 19 passages by CLSI based broth dilution method
Escherichia coli [3] = test: Bactericidal activity against Escherichia coli ATCC 25922 assessed as log reduction in viable bacteria at 8 times MIC measured after 2 hrs by time-killing assay
Staphylococcus aureus [4] = test: Antibacterial activity against methicillin-resistant Staphylococcus aureus NCTC10442 assessed as inhibition of bacterial growth incubated for 24 hrs by CLSI based broth dilution method
Staphylococcus aureus [5] = test: Antibacterial activity against methicillin-resistant Staphylococcus aureus N315 assessed as inhibition of bacterial growth incubated for 24 hrs by CLSI based broth dilution method
Staphylococcus aureus [6] = test: Antibacterial activity against Staphylococcus aureus ATCC 29213 in C57BL/6 mouse model of bacterial keratitis assessed as log reduction in number of viable bacterial colonies in infected cornea at 50 mg/ml, TOP administered 4 times a day for 3 consecutive days; settings: time 3 day
Staphylococcus aureus [7] = test: Antibacterial activity against Staphylococcus aureus ATCC 29213 assessed as inhibition of bacterial growth incubated for 24 hrs by CLSI based broth dilution method
Staphylococcus aureus [8] = test: Bactericidal activity against Staphylococcus aureus ATCC 29213 assessed as log reduction in viable bacteria at 8 times MIC measured after 8 hrs by time-killing assay
Pseudomonas aeruginosa = test: Antibacterial activity against Pseudomonas aeruginosa ATCC 9027 in C57BL/6 mouse model of bacterial keratitis assessed as log reduction in number of viable bacterial colonies in infected cornea at 3 mg/ml, TOP administered 4 times a day for 3 consecutive days; settings: time 3 day

Question: Which fold change (FC) (Staphylococcus aureus [1]) does the source give for `CCn1cc(C(=O)O)c(=O)c2cc(F)c(N3CCNCC3)cc21` here?
Answer: Its fold change (FC) is 32.

Question: What does the source list for `CC1(C)S[C@@H]2[C@H](NC(=O)[C@H](N)c3ccc(O)cc3)C(=O)N2[C@H]1C(=O)O` [AMOXICILLIN]?
Answer: fold change (FC) (Escherichia coli [2]): 16; log(activity) (Escherichia coli [3]): 1.22

Question: What does the source list for `CN[C@H](CC(C)C)C(=O)N[C@H]1C(=O)N[C@@H](CC(N)=O)C(=O)N[C@H]2C(=O)N[C@H]3C(=O)N[C@H](C(=O)N[C@H](C(=O)O)c4cc(O)cc(O)c4-c4cc3ccc4O)[C@H](O)c3ccc(c(Cl)c3)Oc3cc2cc(c3O[C@@H]2O[C@H](CO)[C@@H](O)[C@H](O)[C@H]2O[C@H]2C[C@](C)(N)[C@H](O)[C@H](C)O2)Oc2ccc(cc2Cl)[C@H]1O` [VANCOMYCIN]?
Answer: MIC (Staphylococcus aureus [4]): 1.56 µg/mL (≈ 1.08 µM); MIC (Staphylococcus aureus [5]): 1.56 µg/mL (≈ 1.08 µM); log(activity) (Staphylococcus aureus [6]): 6.05; MIC (Staphylococcus aureus [7]): 0.78 µg/mL (≈ 0.538 µM); log(activity) (Staphylococcus aureus [8]): 1.22

Question: With `COc1c(N2CCNC(C)C2)c(F)cc2c(=O)c(C(=O)O)cn(C3CC3)c12` (centres undefined) [GATIFLOXACIN] as the compound, how does the “log(activity)” value (Pseudomonas aeruginosa) read?
Answer: Its value is 3.15.
